Results on one substance are retold here after patent publication US20120321609A1, “METHOD OF TREATING PSYCHOLOGICAL DISORDERS” (priority 2011, published 2012).

Experiment [1] concerns mice. In words: Elevated plus maze test (anxiety-related behaviour). It is filed as in vivo, mouse. Particulars: DOI 0.15 mg/kg i.p. How it is done: (§1) Male CD-1 mice were obtained from Charles River Canada (St. Constant, Quebec) at 50-60 days of age, and were acclimatized to the laboratory for approximately 30 days before serving as experimental subjects. Mice were housed four per cage, until the time of surgery, after which they were housed individually. The vivarium was maintained on a 12-h light/dark cycle in a temperature (21° C.) controlled room with food and water freely available. Mice were anesthetized using isoflurane and stereotaxic surgery (David Kopf Instruments Model 940) was performed to install a cannulae into the medial prefrontal cortex. A Guide cannulae (Plastics One In), situated according to the mouse atlas of Franklin and Paxinos at Lateral=0.32 mm, D/V=2.25 mm, A/P=+2.68 mm. A dummy cannula, was inserted flush with guide. Approximately 1 week after behavioral testing mice were perfused with 4% paraformaldehyde. Brains were subsequently sectioned at 14 microns and stained with Cresyl violet for probe placement verification. Only the data from mice with correct probe placements were used in the analysis of the behavioral tests.
Drug diffusion was permitted for 5 min, and then after a further 5 min period mice were injected intraperotineally with DOI (Sigma) at a dose of 0.15 mg/kg or saline. Behavioral testing was conducted 15 min after the DOI treatment. In a second experiment the procedure was identical to that of the preceding study, except that mice were pretreated i.p. with either vehicle or 0.25 mg/kg of M100907 in a volume of 0.3 ml immediately prior to the DOI treatment. As in the preceding study mice were then tested in the elevated plus maze test (n=6-8)/group. Once again, data were obtained from videotapes and the researcher was blind as to the treatments mice had received.
In an initial test, mice were placed in a 45×45 cm open field, with an inner square of 21×24×24 cm., for a 5 min period, during which the time to enter the center area, and the total time spent in the center portion of the arena was recorded. The plus maze test was then conducted 1 min after the open field assessment. Mice were individually placed in one of the enclosed arms of a plus-maze and the behavior of the animals was recorded over a 5 min period by a ceiling-mounted video camera. The amount of time spent in each of the arms, the number of arm entries (an arm entry was defined as all four of the paws being placed in an arm of the plus-maze). The elevated plus-maze had two arms enclosed by 21 cm high walls; whereas the remaining two arms were open (arms were 24.8 cm long×7.7 cm wide). The maze was situated in a dimly lit room, such that the closed arms were darkened, whereas open arms were somewhat illuminated. All behavioural experiments were blinded. All experiments complied with the guidelines set by the Canadian Council on Animal Care and were approved by the Carleton University Animal Care Committee.

Experiment [2] has as its system ERK1/2. Put plainly: ERK1/2 phosphorylation immunoblot in HEK 293 cells. It is filed as cell-based, human. The conditions noted are these: 500 nM CRF; 0, 2, 5, 15 and 30 min. The procedure: Following transfection, HEK 293 cells were re-seeded into 6-well plates. […] Cells were lysed with lysis buffer (50 mM Tris, pH 8.0, 150 mM NaCl, and 0.1% Triton X-100) containing protease inhibitors (1 mM AEBSF, 10 μg/ml leupeptin, and 5 μg/ml aprotinin) for 20 min on a rocking platform at 4° C. Samples were collected into 1.5 mL Eppendorf tubes and centrifuged at 15,000 g for 15 min at 4° C. to pellet insoluble material. A […] protein assay was performed and 50 μg of protein was incubated overnight at room temperature in 3×SDS Loading Buffer containing 2-mercaptoethanol. Samples were separated by SDS-PAGE, transferred to a nitrocellulose membrane, and immunoblotted for ERK1/2 (rabbit anti-p44/42 mitogen-activated protein kinase (MAPK), 1:1000), phospho-ERK1/2 (rabbit anti-phospho-p44/42 MAPK, 1:1000), SAP97 (mouse anti-SAP97, 1:1000), and HA-CRFR1 expression (mouse anti-HA, 1:1000), followed by a horseradish peroxidase-conjugated secondary anti-rabbit antibody (1:10,000) or anti-mouse antibody (1:10,000) where appropriate. Proteins were detected using chemiluminescence with the enhanced chemiluminescence kit from GE Healthcare.

The test system of experiment [3] is mice. In words: Open field test (anxiety-related behaviour). It is filed as in vivo, mouse. The conditions noted are these: 5 min test; CRF 1.5 μg into medial prefrontal cortex, DOI 0.15 mg/kg i.p.; vs vehicle-vehicle or single treatment. How it is done: as §1, with “Brains were subsequently sectioned at 14 microns and stained with Cresyl violet for probe placement verification. Only the data from mice with correct probe placements were used in the analysis of the behavioral tests.” left out
In an initial test, mice were placed in a 45×45 cm open field, with an inner square of 21×24×24 cm., for a 5 min period, during which the time to enter the center area, and the total time spent in the center portion of the arena was recorded. […] Mice were individually placed in one of the enclosed arms of a plus-maze and the behavior of the animals was recorded over a 5 min period by a ceiling-mounted video camera. […]

Where [4] appears, read: first experiment, CRF 1.5 μg into medial prefrontal cortex.
Where [5] appears, read: second experiment (M100907 study), CRF 1.5 μg mPFC, M100907 0.25 mg/kg i.p.

In the case of “CRF: 41 amino acid peptide that activates the HPA axis; agonist of CRF receptors”, in experiment [1] (setting [4]), the “latency to enter an open arm of the plus maze” value is “had no effect”, the “number of entries into the closed arms of the plus maze” value is reported as “did not vary” and the “number of entries onto the open arms of the plus maze” value was “had no effect”. Also, in experiment [1] (setting [5]), the “frequency of open arm entries in the plus maze” value is reported as “neither CRF nor DOI alone affected the frequency of open arm entries”; the “latency to enter the open arms of the plus maze” value is recorded as “moderate, but statistically significant increase”; the “time spent in the closed arms of the plus maze” value was “unaffected”. The “entries to the closed arms of the plus maze” value in experiment [1] (second experiment (M100907 study), CRF 1.5 μg mPFC, M100907 0.25 mg/kg i.p., relative to vehicle) was “increased closed arm entries”. Further, in experiment [2], the “ERK1/2 phosphorylation in cells transfected with HA-CRFR1 and scrambled shRNA” value is “more robust and sustained activation”; the “ERK1/2 phosphorylation in non-transfected HEK 293 cells” value is given as “increase in detectable ERK1/2 phosphorylation at 5 min”. Besides, the “latency to enter the center square of open field” value in experiment [3] is reported as “neither the CRF nor the DOI treatments alone influenced performance”.
